Test results from paper doi:10.1101/177311v3 (biorxiv, 2018).

Target: T1, mycL-Hmg2-GFP (1myc-Hmg2-GFP; Hmg2 transmembrane region) (Saccharomyces cerevisiae, UniProt P12684)
T1 sequence (P12684 1-535 limits assumed): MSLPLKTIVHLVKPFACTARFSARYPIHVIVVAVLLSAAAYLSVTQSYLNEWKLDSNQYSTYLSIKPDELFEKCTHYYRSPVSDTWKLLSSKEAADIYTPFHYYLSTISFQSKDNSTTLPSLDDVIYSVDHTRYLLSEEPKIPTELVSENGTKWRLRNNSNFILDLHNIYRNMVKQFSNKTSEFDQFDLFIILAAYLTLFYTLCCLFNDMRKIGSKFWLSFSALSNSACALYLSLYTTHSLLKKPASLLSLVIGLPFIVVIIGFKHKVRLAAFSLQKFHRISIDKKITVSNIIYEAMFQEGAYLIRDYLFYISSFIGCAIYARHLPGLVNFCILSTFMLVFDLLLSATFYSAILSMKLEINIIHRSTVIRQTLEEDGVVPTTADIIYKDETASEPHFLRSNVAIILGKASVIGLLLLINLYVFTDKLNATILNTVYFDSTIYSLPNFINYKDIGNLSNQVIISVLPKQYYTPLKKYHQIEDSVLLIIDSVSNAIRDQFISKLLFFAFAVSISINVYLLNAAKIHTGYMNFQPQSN
Test: limited trypsin proteolysis of microsomes, anti-myc immunoblot
Assay type: biochemical

For `CC(C)=CCC/C(C)=C/CC/C(C)=C/CC/C(C)=C/COP(=O)(O)OP(=O)(O)O` [GGPP, geranylgeranyl pyrophosphate], the EC50 was under 200 nM.
